Experimental data: paper PMC9781003, “Two Antenna-Enriched Odorant Binding Proteins in Dioryctria abietella Tuned to General Odorants and Insecticides” (Insects, 2022)
Read-outs that look alike come from different tables or passages of the source.

Tests used:
[1] = molecular target: T1, DabiOBP5 (Dioryctria abietella, UniProt A0A8E6HS34); test: Competitive fluorescence binding assay with 1-NPN probe, recombinant DabiOBP5; conditions: for Ki: read-out: OBP5 Ki (dissociation constant), competitive displacement of 1-NPN, three replicates, mean ± SE
T1 sequence (A0A8E6HS34 19-139): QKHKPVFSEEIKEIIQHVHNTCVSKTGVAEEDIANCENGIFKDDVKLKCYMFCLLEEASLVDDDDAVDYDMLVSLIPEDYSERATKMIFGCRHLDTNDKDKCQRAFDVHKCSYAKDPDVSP
Excerpt: In the binding assays, we selected 100 compounds derived from host/non-host plants and man-made insecticides widely used for the control of lepidopteran pests, representing 88 general odorants (21 esters, 21 alcohols, 14 aldehydes, 13 alkenes, seven ketones, 11 alkanes and one acid) and 12 insecticides. These compounds and N-phenyl-1-naphthylamine (1-NPN) were purchased from Aladdin and Sigma-Aldrich, with the highest available purity. […] The concentrations of the work solution for each ligand and 1-NPN were set at 1 mM.
In order to measure the binding properties of the DabiOBPs to the 100 ligands, competitive binding assays were performed on a RF5301PC fluorescence spectrophotometer (Shimadzu, Japan). The concentrations of DabiOBPs and the fluorescent probe 1-NPN were set at 2 μM. […] Accordingly, binding constants (K1-NPN) of the DabiOBPs and 1-NPN were calculated using GraphPad Prism 7 (GraphPad Software Inc., San Diego, CA). […] For the ligands replacing over a half of 1-NPN fluorescence (50%) at 20 μM, three replicates were performed. The excitation wavelength was set at 337 nm and the emission peaks were recorded at around 400 nm.

[2] = tested on: DabiOBP14; format: binding, Dioryctria abietella; conditions: for Ki: competitive displacement of 1-NPN, three replicates, mean ± SE, read-out: OBP14 Ki (dissociation constant)
Procedure: In the binding assays, we selected 100 compounds derived from host/non-host plants and man-made insecticides widely used for the control of lepidopteran pests, representing 88 general odorants (21 esters, 21 alcohols, 14 aldehydes, 13 alkenes, seven ketones, 11 alkanes and one acid) and 12 insecticides. These compounds and N-phenyl-1-naphthylamine (1-NPN) were purchased from Aladdin and Sigma-Aldrich, with the highest available purity. They were first diluted into 100 mM, using methanol (HPLC purity grade, ≥99.9%) as a stock solution. The concentrations of the work solution for each ligand and 1-NPN were set at 1 mM.
In order to measure the binding properties of the DabiOBPs to the 100 ligands, competitive binding assays were performed on a RF5301PC fluorescence spectrophotometer (Shimadzu, Japan). The concentrations of DabiOBPs and the fluorescent probe 1-NPN were set at 2 μM. The binding of DabiOBPs to 1-NPN in 20 mM Tris-HCl buffer (pH 7.4) was measured by adding final concentrations of 2–16 μM 1-NPN. Accordingly, binding constants (K1-NPN) of the DabiOBPs and 1-NPN were calculated using GraphPad Prism 7 (GraphPad Software Inc., San Diego, CA). The binding of the DabiOBPs to various ligands was conducted by adding different concentrations of ligands (2, 4, 6, 8, 12, 16 and 20 μM) into the DabiOBP5/1-NPN (each 2 μM) or DabiOBP14/1-NPN (each 2 μM) mixtures. For the ligands replacing over a half of 1-NPN fluorescence (50%) at 20 μM, three replicates were performed. The excitation wavelength was set at 337 nm and the emission peaks were recorded at around 400 nm. The dissociation constants (Ki) of the tested ligands to DabiOBPs were computed, using the equation: Ki = [IC50]/(1 + [1-NPN]/K1-NPN), where [1-NPN] was the free concentration of 1-NPN and IC50 was the concentration of ligands replacing 50% of 1-NPN fluorescence.

[3] = ligand at 20 μM, DabiOBP5/1-NPN each 2 μM, Tris-HCl pH 7.4, NB = no binding, read-out: OBP5 F.D. (%) fluorescence displacement percent
[4] = ligand at 20 μM, DabiOBP14/1-NPN each 2 μM, Tris-HCl pH 7.4, NB = no binding
[5] = ligand at 20 μM, DabiOBP5/1-NPN each 2 μM, Tris-HCl pH 7.4, NB = no binding
[6] = pH 7.4, read-out: OBP5 F.D. (%) fluorescence displacement percent

Structure (SMILES) | inhibition at 20 µM [1, 3] [%] | OBP14 F.D. (%) fluorescence displacement percent [2, 4] [%] | further results
CC(C)=CCCC(C)=CC=O (mixture of isomers) [Citral] | 39 | 32.25 | –
C=CC(C)(O)CCC=C(C)CCC=C(C)C (mixture of isomers) [Nerolidol] | 34.6 | 37.52 | –
CCCCCCCCCCO [1-Decanol] | 31.4 | 31.32 | –
CCCCCCCCCCCCO [1-Dodecanol] | 38.7 | 28.55 | –
CCCCCCCO [1-Heptanol] | 39.3 | 39.10 | –
CCCCCCCCCCCCCCCCO [1-Hexadecanol] | 37 | 31.97 | –
CCCCCCO [1-Hexanol] | 38.9 | 40.27 | –
c1ccc(Nc2cccc3ccccc23)cc1 [1-NPN, N-phenyl-1-naphthylamine] | – | – | Kd ([1]; 2 μM protein, 2–16 μM 1-NPN, 20 mM Tris-HCl pH 7.4, read-out: K1-NPN binding constant of DabiOBP5 and 1-NPN): 7.49 ± 0.69 µM; Kd ([2]; 2 μM protein, 2–16 μM 1-NPN, 20 mM Tris-HCl pH 7.4, read-out: K1-NPN binding constant of DabiOBP14 and 1-NPN): 4.5 ± 0.42 µM
CCCCCCCCCO [1-Nonanol] | 39.6 | 29.98 | –
CCCCCCCCO [1-Octanol] | 35 | 35.51 | –
CCCCCCCCCCCO [1-Undecanol] | 37.7 | – | –
C=CCCCCCCCCC [1-Undecene] | 17.4 | – | –
CCCCCC(C)O (stereo not drawn) [2-Heptanol] | 13.9 | 24.86 | –
CCCCCC(C)=O [2-Heptanone] | 36.5 | 33.53 | –
CCCCC(C)=O [2-Hexanone] | 43.1 | 27.57 | –
CCC(C)CO (stereo not drawn) [2-Methyl-1-butanol] | 36 | 27.78 | –
CCCCCCCCCCCC(C)=O [2-Tridecanone] | 35.6 | 32.61 | –
CC1=CCC2C(C1)C2(C)C (stereo not drawn) [3-Carene] | 41.6 | 29.92 | –
CCCC(=O)CC [3-Hexanone] | 25.3 | 36.58 | –
CC(C)=CCO [3-Methyl-2-buten-1-ol] | 37 | 34.58 | –
CCCCC=CCCO [3-Octenol] | 25.1 | 31.31 | –
CC(C)=CCCC(C)O (stereo not drawn) [6-Methyl-5-hepten-2-ol] | 41.4 | 33.49 | –
CC(=O)CCC=C(C)C [6-Methyl-5-hepten-2-one] | 40.3 | 34.39 | –

Structure (SMILES) | inhibition at 20 µM [1, 3] [%] | OBP14 F.D. (%) fluorescence displacement percent [2, 4] [%] | further results
CC(=O)c1ccccc1 [Acetophenone] | 38.8 | 36.22 | –
CCCCCOC(C)=O [Amyl acetate] | – | 25.00 | OBP5 F.D. (%) fluorescence displacement percent [1, 5]: 26.33%
O=Cc1ccccc1 [Benzaldehyde] | 36.8 | 38.35 | –
O=C(OCc1ccccc1)c1ccccc1 [Benzyl benzoate] | 47.8 | 49.39 | –
CCCCOC(C)=O [Butyl acetate] | 31.6 | – | OBP14 F.D. (%) fluorescence displacement percent ([2]; pH 7.4): 0.16%
O=C(NC(=O)c1ccccc1Cl)Nc1ccc(Cl)cc1 [Chlorbenzuron] | – | 47.43 | OBP5 F.D. (%) fluorescence displacement percent [1, 5]: 39.11%
CCOCn1c(-c2ccc(Cl)cc2)c(C#N)c(Br)c1C(F)(F)F [Chlorfenapyr] | – | 60.84 | inhibition at 20 µM [1, 6]: 62%; Ki [1]: 8.16 ± 0.55 µM; Ki ([1]; listed as chlorfenapyr): < 13 µM; Ki ([2]; listed as chlorfenapyr): < 13 µM; Ki [2]: 8.41 ± 0.42 µM
CCOP(=S)(OCC)Oc1nc(Cl)c(Cl)cc1Cl [Chlorpyrifos] | – | 72.41 | inhibition at 20 µM [1, 6]: 66.1%; Ki [1]: 5.92 ± 0.48 µM; Ki ([1]; listed as chlorpyrifos): < 13 µM; Ki ([2]; listed as chlorpyrifos): < 13 µM; Ki [2]: 4.62 ± 0.46 µM
CCCCCCCCCC=O [Decanal] | 29.1 | 21.35 | –
CCCCCCCCCC [Decane] | 20.2 | – | –
CCCCCCCCCCOC(C)=O [Decyl acetate] | 26.2 | 15.15 | –
CC1(C)[C@H](C(=O)O[C@H](C#N)c2cccc(Oc3ccccc3)c2)[C@@H]1C=C(Br)Br [Deltamethrin] | 28.5 | 38.21 | –
O=C(NC(=O)c1c(F)cccc1F)Nc1ccc(Cl)cc1 [Diflubenzuron] | 21.4 | 30.33 | –
CCCCCCCCCCCC=O [Dodecanal] | 30.6 | 3.43 | –
CCCCCCCCCCCC [Dodecane] | 31.9 | 17.71 | –
CCC/C=C/CO [E2-Hexen-1-ol] | – | 18.64 | OBP5 F.D. (%) fluorescence displacement percent [1, 5]: 36.50%
CCC/C=C/C=O [E2-Hexenal] | – | 32.34 | OBP5 F.D. (%) fluorescence displacement percent [1, 5]: 33.10%
CCCCCCCCC [Nonane] | 22.2 | – | –
CCCCCCCC [Octane] | 27.9 | – | –
CCCCCCCCCCCCC [Tridecane] | 5.52 | – | –
C/C1=C\CC/C(C)=C/CC(C)(C)/C=C/C1 [α-Caryophyllene] | – | – | OBP5 F.D. (%) fluorescence displacement percent [1, 5]: 15.42%
C=C1CC/C=C(\C)CC[C@@H]2[C@@H]1CC2(C)C [β-Caryophyllene] | 16.3 | – | –
